Assay results published in patent US20130189764A1, “SELECTIVE GROWTH MEDIA” (Oxide Limited, priority 2000, published 2013).
≈ marks a conversion by molar mass, not a printed value.

What was measured:
[1] = test system: Klebsiella pneumoniae 411; test: MIC / growth in DMSal (Example 16); assay type: cell-based; settings: Klebsiella pneumoniae 411, DMSal
Description: (§1) The experiments were conducted as follows: nutrient agar medium was autoclaved and, on cooling (but prior to setting) filter-sterilised alaphosphin or AEP were incorporated at final concentrations of 1 mM, 2 mM, 5 mM and 10 mM, and the medium used to pour plates. Control plates were prepared using nutrient agar without alaphosphin or AEP. A single colony of the organism under test was inoculated in 10 ml of nutrient broth and incubated (without agitation) at 37° C. for 4 hours.
(§2) Trp-AEP was compared to alaphosphin (Ala-AEP) for selective growth of Salmonella strains on DMSal agar.

[2] = test system: Klebsiella pneumoniae 758; test: MIC / growth in DMSal (Example 16); assay type: cell-based; settings: Klebsiella pneumoniae 758, DMSal
Description: as §1, §2

Citrobacter freundii 370 = test: MIC / growth in DMSal (Example 16); assay type: cell-based; settings: Citrobacter freundii 370, DMSal
Description: as §1, §2

[3] = test system: Salmonella enteriditis 723; test: MIC / growth in DMSal (Example 16); assay type: cell-based; settings: Salmonella enteriditis 723, DMSal
Description: as §1, §2

Escherichia coli 122 = test: MIC / growth in DMSal (Example 16); assay type: cell-based; settings: Escherichia coli 122, DMSal
Description: as §1, §2

Salmonella arizonae 1200 = test: MIC / growth in DMSal (Example 16); assay type: cell-based; settings: Salmonella arizonae 1200, DMSal
Description: as §1, §2

Escherichia coli 199 = test: MIC / growth in DMSal (Example 16); assay type: cell-based; settings: Escherichia coli 199, DMSal
Description: as §1, §2

Serratia marcescens 217 = test: MIC / growth in DMSal (Example 16); assay type: cell-based; settings: Serratia marcescens 217, DMSal
Description: as §1, §2

Escherichia coli 481 = test: MIC / growth in DMSal (Example 16); assay type: cell-based; settings: Escherichia coli 481, DMSal
Description: as §1, §2

Klebsiella aerogenes 323 = test: MIC / growth in DMSal (Example 16); assay type: cell-based; settings: Klebsiella aerogenes 323, DMSal
Description: as §1, §2

[4] = test system: Salmonella typhimurium 722; test: MIC / growth in DMSal (Example 16); assay type: cell-based; settings: Salmonella typhimurium 722, DMSal
Description: as §1, §2

Salmonella virchow 703 = test: MIC / growth in DMSal (Example 16); assay type: cell-based; settings: Salmonella virchow 703, DMSal
Description: as §1, §2

Streptococcus pneumonaie = test: MIC on DMSal agar (Example 15); assay type: cell-based; settings: 5 strains
Haemophilus influenzae = test: MIC on DMSal agar (Example 15); assay type: cell-based; settings: 5 strains
Salmonella = settings: 16 strains, DMSal agar
Description: as §1

Burkholderia cepacia = test: MIC on DMSal agar (Example 15); assay type: cell-based; settings: 1 strain
E. coli strains = test: inhibition of E. coli strains on DMSal agar for selective growth of Salmonella (Example 16); assay type: cell-based, Escherichia coli; settings: added to DMSal, selective growth of Salmonella strains
Description: as §1, §2

Serratia marcescans = test: MIC on DMSal agar (Example 15); assay type: cell-based; settings: 1 strain
Description: (§3) The experiments were conducted as follows: […], on cooling (but prior to setting) filter-sterilised alaphosphin or AEP were incorporated at final concentrations of 1 mM, 2 mM, 5 mM and 10 mM, and the medium used to pour plates. Control plates were prepared using nutrient agar without alaphosphin or AEP. A single colony of the organism under test was inoculated in 10 ml of nutrient broth and incubated (without agitation) at 37° C. for 4 hours.

Cronobacter sakazakii = test: MIC on DMSal agar (Example 15); assay type: cell-based; settings: 1 strain
Description: as §3

Streptococcus agalactiae = test: MIC on DMSal agar (Example 15); assay type: cell-based; settings: 5 strains
Description: as §3

Klebsiella aerogenes = test: MIC on DMSal agar (Example 15); assay type: cell-based; settings: 1 strain
Description: as §3

Campylobacter jejuni = test: MIC on DMSal agar (Example 15); assay type: cell-based; settings: 4 strains
Description: as §3

Acinetobacter baumanii = test: MIC on DMSal agar (Example 15); assay type: cell-based; settings: 1 strain
Description: as §3

Campylobacter coli = test: MIC on DMSal agar (Example 15); assay type: cell-based; settings: 4 strains
Description: as §3

Citrobacter freundii = test: MIC on DMSal agar (Example 15); assay type: cell-based; settings: 4 strains
Description: as §3

Streptoccocus viridans = test: MIC on DMSal agar (Example 15); assay type: cell-based; settings: 1 strain
Description: as §3

Hafnia alvei = test: MIC on DMSal agar (Example 15); assay type: cell-based; settings: 1 strain
Description: as §3

Proteus mirabilis = test: MIC on DMSal agar (Example 15); assay type: cell-based; settings: 1 strain
Description: as §3

Group D Streptococcus = test: MIC on DMSal agar (Example 15); assay type: cell-based; settings: 2 strains
Description: as §3

Escherichia hermanii = test: MIC on DMSal agar (Example 15); assay type: cell-based; settings: 1 strain
Description: as §3

Escherichia coli = test: MIC on DMSal agar (Example 15); assay type: cell-based; settings: 7 strains
Description: as §3

Enterobacter cloacae = test: MIC on DMSal agar (Example 15); assay type: cell-based; settings: 2 strains
Description: as §3

Enterobacter aerogenes = test: MIC on DMSal agar (Example 15); assay type: cell-based; settings: 1 strain
Description: as §3

Proteus vulgaris = test: MIC on DMSal agar (Example 15); assay type: cell-based; settings: 1 strain
Description: as §3

Listeria ivanovii = test: MIC on DMSal agar (Example 15); assay type: cell-based; settings: 1 strain
Description: as §3

Enterococcus faecium = test: MIC on DMSal agar (Example 15); assay type: cell-based; settings: 1 strain
Description: as §3

Staphylococcus aureus = test: MIC on DMSal agar (Example 15); assay type: cell-based; settings: 14 strains
Description: as §3

Group F Streptococcus = test: MIC on DMSal agar (Example 15); assay type: cell-based; settings: 2 strains
Description: as §3

Klebsiella pneumoniae = test: MIC on DMSal agar (Example 15); assay type: cell-based; settings: 2 strains
Description: as §3

Aeromonas hydrophilia = test: MIC on DMSal agar (Example 15); assay type: cell-based; settings: 1 strain
Description: as §3

[5] = test system: Staphylococcus epidermidis; test: MIC on DMSal agar (Example 15); assay type: cell-based; settings: 3 strains
Description: as §3

Listeria innocua = test: MIC on DMSal agar (Example 15); assay type: cell-based; settings: 1 strain
Description: as §3

Group A Streptococcus = test: MIC on DMSal agar (Example 15); assay type: cell-based; settings: 7 strains
Description: as §3

Shigella = test: MIC on DMSal agar (Example 15); assay type: cell-based; settings: 3 strains
Description: as §3

[6] = test system: Staphylococcus saprophyticus; test: MIC on DMSal agar (Example 15); assay type: cell-based; settings: 1 strain
Description: as §3

[7] = test system: Staphylococcus haemolyticus; test: MIC on DMSal agar (Example 15); assay type: cell-based; settings: 1 strain
Description: as §3

[8] = test system: Cronobacterr sakazakii 1888; test: MIC / growth in DMSal (Example 16); assay type: cell-based, Cronobacter sakazakii; settings: Cronobacterr sakazakii 1888, DMSal
Description: as §1, §2

Yersinia enterocolitica = test: MIC on DMSal agar (Example 15); assay type: cell-based; settings: 2 strains

With `CC(NC(=O)C(N)Cc1c[nH]c2ccccc12)P(=O)(O)O` (stereo not shown) [Trp-AEP, tryptophan-AEP] the “MIC of Trp-AEP” value [1] was 2 µg/mL, the “MIC of Trp-AEP” value [2] was 0.064 µg/mL and the “MIC of Trp-AEP” value (Citrobacter freundii 370) was 2 µg/mL. For the same compound, the “MIC of Trp-AEP” value [3] was 3 µg/mL, the “MIC of Trp-AEP” value (Escherichia coli 122) was 0.25 µg/mL and the “MIC of Trp-AEP” value (Salmonella arizonae 1200) was 2 µg/mL. For the same compound, the “MIC of Trp-AEP” value (Escherichia coli 199) was 0.25 µg/mL, the “MIC of Trp-AEP” value (Serratia marcescens 217) was 3 µg/mL and the “MIC of Trp-AEP” value (Escherichia coli 481) was 0.064 µg/mL. The “MIC of Trp-AEP” value (Klebsiella aerogenes 323) was 3 µg/mL, the “MIC of Trp-AEP” value [4] was 3 µg/mL and the “MIC of Trp-AEP” value (Salmonella virchow 703) was 3 µg/mL. It also gave an MIC (Streptococcus pneumonaie) of over 256 µg/mL, an MIC (Haemophilus influenzae) of over 128 µg/mL and an MIC (Salmonella) of 2 to 16 µg/mL. The MIC (Burkholderia cepacia) was over 256 µg/mL, the “concentration producing equivalent results to Ala-AEP at 1.5 μg/ml” value (E. coli strains) was 0.25 µg/mL and the MIC (Serratia marcescans) was 2 µg/mL (≈ 6.43 µM). The MIC (Cronobacter sakazakii) was “approximately 1 μg/ml”, the MIC (Cronobacter sakazakii; listed as tryptophan-AEP) was 1 µg/mL (≈ 3.21 µM) and the MIC (Streptococcus agalactiae) was 128 µg/mL (≈ 411 µM). For the same compound, the MIC (Klebsiella aerogenes) was 8 µg/mL (≈ 25.7 µM), the MIC (Campylobacter jejuni) was over 128 µg/mL and the MIC (Acinetobacter baumanii) was over 256 µg/mL. For the same compound, the MIC (Campylobacter coli) was over 128 µg/mL, the MIC (Citrobacter freundii) was “approximately 1 μg/ml” and the MIC (Citrobacter freundii; listed as tryptophan-AEP) was 1 to 4 µg/mL. For the same compound, the MIC (Streptoccocus viridans) was over 256 µg/mL, the MIC (Hafnia alvei) was “approximately 1 μg/ml” and the MIC (Hafnia alvei; listed as tryptophan-AEP) was 1 µg/mL (≈ 3.21 µM). It also gave an MIC (Proteus mirabilis) of over 128 µg/mL, an MIC (Group D Streptococcus) of 16 µg/mL (≈ 51.4 µM) and an MIC (Escherichia hermanii) of 0.5 µg/mL (≈ 1.61 µM). The MIC (Escherichia coli) was at most 0.5 µg/mL, the MIC (Escherichia coli; listed as tryptophan-AEP) was 0.25 to 0.5 µg/mL and the MIC (Enterobacter cloacae) was 4 µg/mL (≈ 12.9 µM). The MIC (Enterobacter aerogenes) was 1 µg/mL (≈ 3.21 µM), the MIC (Proteus vulgaris) was over 128 µg/mL and the MIC (Listeria ivanovii) was over 128 µg/mL. For the same compound, the MIC (Enterococcus faecium) was over 256 µg/mL, the MIC (Staphylococcus aureus) was 0.5 to 16 µg/mL and the MIC (Group F Streptococcus) was over 256 µg/mL. The MIC (Klebsiella pneumoniae) was 2 to 4 µg/mL, the MIC (Aeromonas hydrophilia) was 128 µg/mL (≈ 411 µM) and the MIC [5] was 4 to 16 µg/mL. For the same compound, the MIC (Listeria innocua) was 32 µg/mL (≈ 103 µM), the MIC (Group A Streptococcus) was over 256 µg/mL and the MIC (Shigella) was at most 0.5 µg/mL. For the same compound, the MIC [6] was 64 µg/mL (≈ 206 µM), the MIC [7] was 2 µg/mL (≈ 6.43 µM) and the “MIC of Trp-AEP” value [8] was 0.125 µg/mL. For the same compound, the MIC (Yersinia enterocolitica) was 4 to 8 µg/mL.
